# Test results reported in patent EP0977560B1 (PAZ Arzneimittel- Entwicklungsgesellschaft mbH, priority 1997, dated 1998).
# Key:
# [1] = system: PGHS-2 (Cyclooxygenase-2); assay: Formation of PGHS-2 in LPS-induced monocytes (method after Brideau et al., human whole blood assay); assay type: cell-based; settings: LPS-induced Monozyten, 24 Std.; R-Ibuprofenoyl-CoA 0.5, 0.25, 0.05 mM; Ibuprofen, razemisch 1.0, 0.1, 0.05 mM; Abbildung 2
# Description: Inkubation von LPS-induzierten Monozyten (24 Std.). […] Methode nach: BRIDEAU, C., KARGMAN, S., LIU, S., DALLOB, A.L., EHRICH, E.W., RODGER, I.W. & CHAN, C.C. […] A human whole blood assay for clinical evaluation of biochemical efficacy of cyclooxygenase inhibitors. Inflamm. Res., 45, 68-74.
# [2] = system: Transkriptionsfaktors NF-κB; assay: Electro mobility shift assay (DIG Gel Shift Kit) of NF-κB activation in TPA-stimulated Jurkat cells; assay type: cell-based; settings: Phorbolester (TPA) stimulated Jurkat-Zellen; two-hour preincubation; 100, 10 and 1 ptm (Spur 3-5); Abbildung 1
# Description: Einfluß von R-Ibuprofen-CoA-Thioester auf die Aktivierung des Transkriptionsfaktors NF-κB in Jurkat-Zellen. […] Spur 1 zeigt die unstimulierten, Spur 2 die stimulierten Kontrollzellen.
smiles,measurement,setting,value
CC(C)Cc1ccc([C@@H](C)C(=O)SCCNC(=O)CCNC(=O)[C@H](O)C(C)(C)COP(=O)(O)OP(=O)(O)OC[C@H]2O[C@@H](n3cnc4c(N)ncnc43)[C@H](O)[C@@H]2OP(=O)(O)O)cc1 [R-Ibuprofen-CoA-Thioester],Bildung von PGHS-2 (Cyclooxygenase-2),[1],dosisabhängig zu einer Unterdrückung der Bildung von PGHS-2
same,Aktivierung des Transkriptionsfaktors NF-κB,[2],Aktivierungshemmung von NF-κB
